Consider two molecules from US12458597B2, “Carotenoid compositions and uses thereof” (L.E.A.F. HOLDINGS GROUP LLC, priority 2018, dated 2025).

Data set [1] in a line: Maximum solubility of trans-crocetin sodium in aqueous media. Format: physicochemical. The settings on record: 5% dextrose (aqueous medium), saline or isotonic; in 5% dextrose. The protocol: The ethanolic lipid solution containing HSPC, cholesterol, PEG-DSPE, with/without PGPC was added into the aqueous solution using a pipet. During this step the solution was well stirred using a magnetic stirrer. The mixing was performed at an elevated temperature (63° C.-72° C.) to ensure that the lipids are in the liquid crystalline state (as opposed to the gel state they attain at temperatures below the lipid transition temperature (Tm=51° C.-54° C.). As a result, the lipids are hydrated and formed multiple bilayer (multilamellar) vesicles (MLV) containing trans-crocetin sodium in the aqueous core. The MLVs were then downsized by extrusion as described previously.
The ethanolic lipid solution containing HSPC, cholesterol, PEG-DSPE, with/without PGPC and the trans-crocetin sodium aqueous solution were separately transferred to syringes. Two solutions were injected into a microfluidic channel and mixed while flowing through it with Precision NanoSystems' NanoAssemblr® device. The mixing was performed at an elevated temperature (63° C.-72° C.) to ensure that the lipids were in a liquid crystalline state (as opposed to the gel state that they attain at temperatures below the lipid transition temperature (Tm=51° C.-54° C.). The liposome size can be controlled by varying the ratio between lipid solution and aqueous solution, as well as the mixing flow rate.

A short description of data set [2]: Liposomal CTC and MTC PK in mice, plasma STC by HPLC. It is filed as in vivo. The settings on record: mouse, single dose, slow intravenous bolus.
Protocol: Sample mixtures were well mixed by vortexing. […] Samples were vortexed and then centrifuged at 10000 RPM for 10 min at room temperature. 200 μL of supernatant was removed from each sample without disturbing pellet and analyzed by HPLC. If the amount of plasma permitted, this analysis was duplicated.
The concentration of STC in the plasma samples was quantified by standard curve constructed by analyzing plasma samples containing known amount of STC. PK profiles were analyzed.
The subject of the next data set is mouse CLP sepsis model. Nature of the data set: CLP sepsis survival Study 1 (TP-936). It is filed as in vivo, C57BL/6 mice. Particulars: CLP mice treated with saline and imipenem (control group); over 5 days. The source says: Male and/or female C57BL/6 mice ordered from Envigo Laboratories or the Jackson Lab (Bar Harbor, Maine) were acclimated to housing conditions and handled in accordance with Animal Use Protocol (AUP) number TP-05. The animals were acclimated for approximately 1 week prior to study start. Only animals deemed healthy were included in this study. Animals were fed irradiated Teklad Global Rodent Diet 2918 and water ad libitum. Mice were group housed 5/cage in static cages with irradiated Teklad ⅛″ corn cob bedding 7902 inside bioBubble® Clean Rooms that provide H.E.P. A filtered air into the bubble environment at 100 complete air changes per hour. The environment was controlled to a temperature range of 74°±5° F. and a humidity range of 30-70%. Treatment groups were identified by cage card. Individual mice were identified by indelible marker on the base of the tail. All procedures carried out in this experiment were conducted in compliance with the laws, regulations, and guidelines of the National Institutes of Health and with the approval of the TransPharm Animal Care and Use Committee.
On Day −1, male and/or female mice were anesthetized through use of isoflurane and brought to a surgical plane. […]
Animals were monitored continually post-surgery, at least once every 2-3 minutes for approximately 30 minutes, until the animals had recovered and were able to move about on their own. […]

Where [3] appears, read: Balb/c, iv, plasma over 24 hour.

`CC(/C=C/C=C(\C)C(=O)O)=C\C=C\C=C(C)\C=C\C=C(/C)C(=O)O` [STC free drug, sodium trans-crocetinate] yielded a solubility in data set [1] of 700 µg/mL. In data set [2] (setting [3]), this molecule showed an AUC of 210 µg·h/mL and a half-life of 21 min. Also, in data set [2] (Balb/c mice), the Cmax came out at 360 µg/mL.

Take `C[C@@H](O)[C@H]1C(=O)N2C(C(=O)O)=C(SCCN=CN)C[C@H]12` [imipenem]: the mortality in the data set with mouse CLP sepsis model is given as 50%.

What is called solubility is how much of the substance goes into solution per volume. Low values mean a poorly soluble substance, high ones a readily soluble substance. In general, AUC refers to concentration integrated over time. In general, half-life refers to the time in which the quantity being followed falls by half. Broadly, the Cmax is the highest concentration seen after dosing. As usually defined, the mortality is the percentage killed.
